Source: article PMC7764606 (Cancers, 2020)

Assays:
[1] = tested on: T1, recombinant AKR1B10; test: Reduction of Dau by recombinant AKR1B10 (UHPLC detection of Dau-ol); format: biochemical, Human; details: Dau 500 µM, relative to DMSO
T1 construct: made in house; host or cells: Escherichia coli
Protocol: Human recombinant CREs (CBR1, AKR1A1, 1B1, 1B10, 7A2, and 1C3) were produced by an Escherichia coli expression system as per methods described previously. For the inhibitory assay, each recombinant enzyme, CBR1 (1 µg), AKR1A1 (1 µg), AKR1B1 (5 µg), AKR1B10 (5 µg), AKR7A2 (3 µg), or AKR1C3 (1.5 µg) was incubated with BTK inhibitors at different concentrations (10 and 50 µM) and the substrate Dau (500 µM). For analysis using the Lineweaver-Burk plot, 1.5 µg of recombinant AKR1C3 was incubated with DMSO or BTK inhibitors (1, 5, and 10 µM) and Dau (200, 400, 600, 800, 1000, and 2000 µM). […] The incubations and further metabolite detection were further performed by using ultra-high-performance liquid chromatography (UHPLC) as per methods described previously.

[2] = tested on: T2, AKR1C3 in HCT116-C3 cells; test: Dau metabolism to Dau-ol in HCT116 cells transiently overexpressing AKR1C3; format: cell-based, human; details: 5 h
T2 construct: expressed in transfected cells; host or cells: HCT116
Protocol: (§1) HCT116 cells were seeded (1.25 × 10^5 cells/well) in 24-well plates and cultured for 24 h. For the transient expression of the recombinant human AKR1C3, the cells were transfected with a pCI_AKR1C3 or empty pCI plasmid as control (previously described in a study by Hofman et al.) according to the manufacturer’s instructions (jetPRIME® Transfection Reagent; Polyplus Transfection®, Illkirch, France). For each 24-well plate, a mixture of 0.75 µL of the jetPRIME® Transfection Reagent and 0.25 µg of plasmid was incubated for 10 min at room temperature. Then, polyplexes were added to the HCT116 cells with 0.5 mL of fresh DMEM supplemented with 10% FBS and incubated for 24 h (37 °C, 5% CO2). The expression of recombinant AKR1C3 was verified by western blotting as per methods described previously.
(§2) After transfection of HCT116 cells or seeding of A549 cells (25 × 10^3 cells/well) in 24-well plates for 24 h, the medium was harvested and replaced with DMEM supplemented with 10% FBS containing 1 µM daunorubicin, with or without increasing concentrations (1, 5, and 10 μM) of BTK inhibitors. Cells were incubated (37 °C, 5% CO2) for 2.5 and 5 h (transfected HCT116) or only 5 h (A549). Then, the medium was collected and the cells were lysed in lysis buffer (25 mM Tris, 150 mM NaCl, and 1% Triton X-100, pH 7.8) for 15 min at room temperature. The collected medium was combined with cell lysate for further extraction and analysis of metabolites, as per methods described previously.

[3] = tested on: A549 cells; test: Intracellular metabolism of Dau in A549 cells; format: cell-based, human; details: 5 h
Protocol: as §2

[4] = tested on: HCT116-C3 cells; test: MTT cell viability, HCT116-C3 cells (incl. Chou-Talalay analysis); format: cell-based, human
Protocol: as §1
The synergistic effect of BTK inhibitors on Dau cytotoxicity was evaluated in transfected HCT116 and A549 cells by IC50 determination. Twenty-four hours prior to the experiment, transfected HCT116 cells (8 × 10^3 cells/well) or A549 cells (5 × 10^3 cells/well) were seeded in 96-well plates. The cell culture medium was replaced with fresh medium containing increasing amounts of Dau (final concentrations: 0.01, 0.05, 0.1, 0.25, 0.5, 0.75, 1, and 10 µM) with or without BTK inhibitors (final concentrations: 1, 5, and 10 µM). After 72 h of incubation under standard conditions (37 °C, 5% CO2), cell viability was assessed by MTT (Sigma-Aldrich, Prague, Czech Republic) assay. For this, 50 µL of the MTT solution (3 mg/mL) was added to each well and incubated for 30 min. The supernatant was collected, and the cell monolayers were dissolved in 100 µL of DMSO. The absorbance was measured at 570 and 690 nm by a microplate reader Infinite M200 (Tecan, Salzburg, Austria), and the background values at 690 nm were subtracted from the absorbance obtained at 570 nm. The half-maximal inhibitory concentrations (IC50) were calculated using GraphPad Prism 8.1.2. The drug combination pharmacodynamics were determined by the Chou-Talalay method using the CompuSyn ver. 3.0.1 software (ComboSyn Inc., Paramus, NJ, USA).

[5] = tested on: AKR1C3 expression in A549 cells; test: AKR1C3 protein levels in A549 cells by western blotting; format: cell-based, human; details: 1, 5 and 10 µM, 72 h, western blot relative to β-actin
Protocol: A549 cells were incubated with DMSO or BTK inhibitors (1, 5, and 10 µM) for 72 h, and then total protein was extracted for analysis of AKR1C3 expression by western blotting (WB) as per methods described previously. A representative WB is shown for IBR (A) and ACA (B) incubations, and bars represent AKR1C3 protein levels as determined by densitometry relative to β-actin (n = 3, mean ± SD). Uncropped images from WB are available in Figure S1 in the Supplementary Materials. On the other hand, HCT116-EV and HCT116-C3 cells were treated with increasing concentrations of IBR (C) and ACA (D) for 72 h, and their viability was assessed by MTT assay. Graphs represent a comparison of the dose-response curves for percentages of cell viability in each cell line (n = 6, mean ± SD).

[6] = recommended dose 200 mg/day, cited from earlier work
[7] = HCT116-C3, BTK-inhibitor 5 µM + Dau 0.25 µM
[8] = HCT116-C3, BTK-inhibitor 10 µM + Dau 0.25 µM

## CC#CC(=O)N1CCC[C@H]1c1nc(-c2ccc(C(=O)Nc3ccccn3)cc2)c2c(N)nccn12 [Acalabrutinib, acalabrutinib]
[1]; 10 µM BTK inhibitor
  inhibition of AKR1B10 activity (Dau reduction): did not show significant inhibition
[1]; 50 µM BTK inhibitor
  inhibition of AKR1B10 activity (Dau reduction): 9.36% ± 2.53%
[2]; 1 µM BTK inhibitor + 1 µM Dau
  decrease in AKR1C3 activity (Dau to Dau-ol): 31.96% ± 13.51%
[2]; 5 µM BTK inhibitor + 1 µM Dau
  decrease in AKR1C3 activity (Dau to Dau-ol): 67.15% ± 10.35%
[2]; 10 µM BTK inhibitor + 1 µM Dau
  decrease in AKR1C3 activity (Dau to Dau-ol): 65.56% ± 1.53%
[3]; 1 µM BTK inhibitor + 1 µM Dau
  reduction of intracellular metabolism of Dau: 12.13% ± 5.19%
[3]; 5 µM BTK inhibitor + 1 µM Dau
  reduction of intracellular metabolism of Dau: 34.32% ± 7.09%
[3]; 10 µM BTK inhibitor + 1 µM Dau
  reduction of intracellular metabolism of Dau: 44.24% ± 9.06%
[4]; [7]
  Dose reduction index for Dau: 1.38 ± 0.37
  Fraction affected (Fa %): 34.59 ± 5.75%
[4]; HCT116-C3, BTK-inhibitor 5 µM + Dau 0.50 µM
  Fraction affected (Fa %): 68.43 ± 1.41%
[4]; HCT116-C3, BTK-inhibitor 5 µM + Dau 0.75 µM
  Fraction affected (Fa %): 79.88 ± 0.40%
[4]; HCT116-C3, BTK-inhibitor 5 µM + Dau 1.00 µM
  Fraction affected (Fa %): 86.61 ± 1.29%
[4]; [8]
  Dose reduction index for Dau: 1.77 ± 0.75
  Fraction affected (Fa %): 40.91 ± 11.4%
[4]; HCT116-C3, BTK-inhibitor 10 µM + Dau 0.50 µM
  Fraction affected (Fa %): 77.47 ± 0.69%
[4]; HCT116-C3, BTK-inhibitor 10 µM + Dau 0.75 µM
  Fraction affected (Fa %): 87.59 ± 1.02%
[4]; HCT116-C3, BTK-inhibitor 10 µM + Dau 1.00 µM
  Fraction affected (Fa %): 91.62 ± 0.29%
[4]; Homo sapiens, HCT116-C3, 72 h MTT, read-out: IC50 of BTK inhibitor alone (cell viability)
  IC50: 32.2 µM
[4]; IC50 in HCT116-C3 divided by IC50 in HCT116-EV
  relative resistance (RR): 0.97
[5]
  effect on expression (protein levels) of AKR1C3: negligible or absence of effects
[6]
  approximate Cmax: ~825 ng/mL
[6]; read-out: approximate Cmax
  Cmax: ~1800 nM
